Where two headings read alike, the source gives them in different places.
Columns and labels:
Type in all cases: physicochemical
[1] = Solid stability assay under accelerated condition (40° C./75% relative humidity, sealed)
Method: According to “Guidelines for Stability Assay of APIs and Preparations” (Chinese Pharmacopoeia 2015 Edition, Volume IV, General Principles 9001), crystal form A of compound 1 was assayed for stability under accelerated condition of high temperature and high humidity (40° C./75% relative humidity, sealed).
(§1) 1.5 g of crystal form A of compound 1 was weighed and placed in a double-layer low-density polyethylene bag. Each layer of low-density polyethylene bag was sealed by buckling, respectively, and then the double-layer low-density polyethylene bag was placed in an aluminum foil bag and heat-sealed. Samples were taken on the 1st, 2nd, 3rd and 6th months for assaying, and the assay results were compared with the initial assay results on day 0.

[2] = Solid stability assay at high temperature, high humidity and strong light
Method: Method for Determining Content Disclosed Herein
Instrument model: Agilent 1260 high performance liquid chromatograph
Detailed parameters of chromatographic conditions were as follows:
Column temperature: 35° C.
Detection wavelength: 230 nm
Mobile phase A: 0.04% aqueous trifluoroacetic acid solution (V/V)
Mobile phase B: 100% acetonitrile
Diluent: acetonitrile: pure water=50:50 (V/V)
Probe Wash: acetonitrile: pure water=50:50 (V/V)
Gradient elution program: […]
According to “Guidelines for Stability Assay of APIs and Preparations” (Chinese Pharmacopoeia 2015 Edition, Volume IV, General Principles 9001), crystal form A of compound 1 was assayed for stability at high temperature (60° C., open), high humidity (room temperature/92.5% relative humidity, open) and strong light (5000±500 Lux, 90 μw/cm^2, sealed).
1.5 g of crystal form A of compound 1 was weighed, placed in an open watch glass, and spread into a thin layer. The samples placed under high temperature and high humidity conditions were placed in a desiccator for inspection, and samples were taken on the 5th, 10th, and 30th days for assaying. The assay results were compared with the initial assay results on day 0. The samples placed under strong light condition were covered with a quartz glass cover, and samples were taken on the 5th and 10th days for assaying. The assay results were compared with the initial assay results on day 0.

[3] = Stability assay of crystal form A in different solvents (XRPD after 2 weeks)
Method: 17 aliquots of crystal form A of compound 1 were weighed (about 15 mg per aliquot), and an appropriate amount of a single or mixed solvent in the Table below was added, respectively. The suspension was stirred at room temperature or 50° C. for 2 weeks. Solids were collected by centrifugation, and detected by XRPD for the crystal form status.

[4] = Solid stability assay under long-term condition (25° C./60% relative humidity, sealed)
Method: According to “Guidelines for Stability Assay of APIs and Preparations” (Chinese Pharmacopoeia 2015 Edition, Volume IV, General Principles 9001), crystal form A of compound 1 was assayed for stability under long-term condition (25° C./60% relative humidity, sealed).
as §1, with “the” for “the 1st, 2nd,”

[5] = Hygroscopicity of crystal form A (dynamic vapor sorption)
Method: SEM Advantage-1 Dynamic Vapor Sorption Apparatus.
10-30 mg of crystal form A of compound 1 was weighed and placed in a DVS sample pan for assaying.

[6] = 40° C./75% relative humidity, sealed, Month 1
[7] = 40° C./75% relative humidity, sealed, Month 2
[8] = 40° C./75% relative humidity, sealed, Month 3
[9] = 40° C./75% relative humidity, sealed, Month 6
[10] = High humidity (room temperature/92.5% relative humidity, open), Day 5
[11] = High humidity (room temperature/92.5% relative humidity, open), Day 10
[12] = High humidity (room temperature/92.5% relative humidity, open), Day 30
[13] = High temperature (60° C., open), Day 5
[14] = High temperature (60° C., open), Day 10
[15] = High temperature (60° C., open), Day 30
[16] = Strong light (5000 ± 500 Lux, 90 μw/cm^2, sealed), Day 5
[17] = Strong light (5000 ± 500 Lux, 90 μw/cm^2, sealed), Day 10
[18] = 25° C./60% relative humidity, sealed, Month 3
[19] = 25° C./60% relative humidity, sealed, Month 6

Appearance [1, 6]: White
Content [1, 6]: 99.5%
Total impurity [1, 6]: 0.32%
Appearance [1, 7]: White
Content [1, 7]: 99.4%
Total impurity [1, 7]: 0.33%
Appearance [1, 8]: White
Content [1, 8]: 99.2%
Total impurity [1, 8]: 0.33%
Appearance [1, 9]: White
Content [1, 9]: 99.5%
Total impurity [1, 9]: 0.33%
Appearance ([1]; Day 0): White
Content ([1]; Day 0): 99.5%
Total impurity ([1]; Day 0): 0.33%
solid stability (in words) ([1]; accelerated condition of 40° C./75% relative humidity): good stability
Appearance ([2]; Day 0): White
Content ([2]; Day 0): 99.5%
Total impurity ([2]; Day 0): 0.33%
Appearance [2, 10]: White
Content [2, 10]: 101.1%
Total impurity [2, 10]: 0.32%
Appearance [2, 11]: White
Content [2, 11]: 100.3%
Total impurity [2, 11]: 0.32%
Appearance [2, 12]: White
Content [2, 12]: 99.5%
Total impurity [2, 12]: 0.33%
Appearance [2, 13]: White
Content [2, 13]: 101.3%
Total impurity [2, 13]: 0.32%
Appearance [2, 14]: White
Content [2, 14]: 100.3%
Total impurity [2, 14]: 0.32%
Appearance [2, 15]: White
Content [2, 15]: 99.2%
Total impurity [2, 15]: 0.33%
Appearance [2, 16]: White
Content [2, 16]: 100.4%
Total impurity [2, 16]: 0.33%
Appearance [2, 17]: White
Content [2, 17]: 100.7%
Total impurity [2, 17]: 0.33%
solid stability (in words) ([2]; high temperature, high humidity, or strong light condition): good stability
Status (after 2 weeks) ([3]; 1,4-Dioxane:n-heptane (1:1), 50° C.): Suspension
Status (after 2 weeks) ([3]; 2-Butanol:m-xylene (2:1), 50° C.): Suspension
Status (after 2 weeks) ([3]; 2-Methyltetrahydrofuran:n-octane (4:1), 50° C.): Suspension
Status (after 2 weeks) ([3]; Acetone:toluene (2:1), room temperature): Suspension
Status (after 2 weeks) ([3]; Acetonitrile:water (3:1), room temperature): Suspension
Status (after 2 weeks) ([3]; Dichloromethane:m-xylene (1:1), room temperature): Suspension
Status (after 2 weeks) ([3]; Dimethyl sulfoxide:water (2:1), 50° C.): Suspension
Status (after 2 weeks) ([3]; Ethanol:water (3:1), 50° C.): Suspension
Status (after 2 weeks) ([3]; Ethyl acetate:m-xylene (2:1), room temperature): Suspension
Status (after 2 weeks) ([3]; Isopropanol:water (85:5), room temperature): Suspension
Status (after 2 weeks) ([3]; Isopropanol:water (92:8), room temperature): Suspension
Status (after 2 weeks) ([3]; Isopropanol:water (95:5), room temperature): Suspension
Status (after 2 weeks) ([3]; Isopropanol:water (98:2), room temperature): Suspension
Status (after 2 weeks) ([3]; Methyl isobutyl ketone:n-hexane (2:1), 50° C.): Suspension
Status (after 2 weeks) ([3]; Methyl tert-butyl ether, room temperature): Suspension
Status (after 2 weeks) ([3]; Toluene, room temperature): Suspension
Status (after 2 weeks) ([3]; Water, room temperature): Suspension
stability in solvents (in words) ([3]; methyl tert-butyl ether, toluene, water, mixed solvent of alcohol and water): good stability
Appearance [4, 18]: White
Content [4, 18]: 99.0%
Total impurity [4, 18]: 0.34%
Appearance [4, 19]: White
Content [4, 19]: 99.5%
Total impurity [4, 19]: 0.33%
Appearance ([4]; Day 0): White
Content ([4]; Day 0): 99.5%
Total impurity ([4]; Day 0): 0.33%
solid stability (in words) ([4]; long-term condition of 25° C./60% relative humidity): good stability
hygroscopicity (in words) [5]: low hygroscopicity
hygroscopic weight gain (ΔW) ([5]; DVS, 25° C. and 80% RH): 0.05%
hygroscopicity (in words) ([5]; listed as Crystal form A of compound 1): no or almost no hygroscopicity
SMILES: CCOc1cc([C@@H](CS(C)(=O)=O)n2c(=O)[nH]c3cc(F)ccc32)ccc1OC [crystal form A of compound 1]

Source: patent US12338218B2, “Crystal form of benzimidazole-2-one compound, solvate thereof, crystal form of solvate thereof, and preparation method thereof” (MEDSHINE DISCOVERY INC., priority 2019, dated 2025)
